Source: patent US9062030B2, “Pyrazole azetidine derivatives as sphingosine 1-phosphate (S1P) receptor modulators” (Allergan, Inc., priority 2013, dated 2015)

Molecular target: T1, human S1P1 receptor (Homo sapiens, UniProt P21453)
T1 construct: expressed in transfected cells; membranes used
Test: GTP γ35S binding assay for S1P1 activity
Assay type: biochemical
Conditions: membranes of cells stably expressing the S1P1 receptor, agonist activity potency
Experimental: Compounds were synthesized and tested for S1P1 activity using the GTP γ^35S binding assay. These compounds may be assessed for their ability to activate or block activation of the human S1P1 receptor in cells stably expressing the S1P1 receptor.
GTP γ^35S binding was measured in the medium containing (mM) HEPES 25, pH 7.4, MgCl2 10, NaCl 100, dithiothreitol 0.5, digitonin 0.003%, 0.2 nM GTP γ^35S, and 5 μg membrane protein in a volume of 150 μl. Test compounds were included in the concentration range from 0.08 to 5,000 nM unless indicated otherwise. Membranes were incubated with 100 μM 5′-adenylylimidodiphosphate for 30 min, and subsequently with 10 μM GDP for 10 min on ice. Drug solutions and membrane were mixed, and then reactions were initiated by adding GTP γ^35S and continued for 30 min at 25° C. Reaction mixtures were filtered over Whatman GF/B filters under vacuum, and washed three times with 3 mL of ice-cold buffer (HEPES 25, pH 7.4, MgCl2 10 and NaCl 100). Filters were dried and mixed with scintillant, and counted for ^35S activity using a β-counter. Agonist-induced GTP γ^35S binding was obtained by subtracting that in the absence of agonist. Binding data were analyzed using a non-linear regression method. In case of antagonist assay, the reaction mixture contained 10 nM S1P in the presence of test antagonist at concentrations ranging from 0.08 to 5000 nM.

T1 sequence (P21453 whole entry): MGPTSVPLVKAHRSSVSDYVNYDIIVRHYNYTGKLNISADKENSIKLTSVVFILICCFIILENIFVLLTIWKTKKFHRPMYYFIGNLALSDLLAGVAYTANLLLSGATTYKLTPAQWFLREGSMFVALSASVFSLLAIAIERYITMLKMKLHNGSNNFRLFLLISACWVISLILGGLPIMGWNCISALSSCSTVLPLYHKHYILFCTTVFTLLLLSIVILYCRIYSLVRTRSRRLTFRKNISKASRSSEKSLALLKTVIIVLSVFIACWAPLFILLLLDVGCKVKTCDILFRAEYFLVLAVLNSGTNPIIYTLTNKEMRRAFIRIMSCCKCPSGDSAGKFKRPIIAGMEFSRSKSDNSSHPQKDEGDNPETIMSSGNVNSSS

**Q.** For `Cc1nn(C(=O)CCc2ccc(CN3CC(C(=O)O)C3)cc2)c2c1C1C(C2)C1(C)C` (stereo not shown) [Compound 1, 1-{4-[3-oxo-3-(3,4,4-trimethyl-3b,4,4a,5-tetrahydro-1H-cyclopropa [3,4]cyclopenta[1,2-c]pyrazol-1-yl)propyl]benzyl}azetidine-3-carboxylic acid], which EC50 is on record?
**A.** 450 nM
